Measured values taken from patent publication US12378268B2, “Heterocyclic THR-β receptor agonist compound and preparation method and use therefor” (Hepagene Therapeutics (HK) Limited, priority 2019, dated 2025).
Like-named read-outs stand apart in the source and are kept apart here.

What was measured:
[1] = target: T1, THR-β (Homo sapiens, UniProt P10828); test: Test of the binding ability of the compound to TRβ (TRβ LBD/RXR, biotin-SRC2-2 co-activating peptide, 665/615 nm fluorescence ratio); format: biochemical
T1 construct: TRB LBD, GST purchased from Thermo Fisher; purchased Thermo Fisher PV4762
T1 sequence (P10828 217-461 limits assumed, other chains not shown): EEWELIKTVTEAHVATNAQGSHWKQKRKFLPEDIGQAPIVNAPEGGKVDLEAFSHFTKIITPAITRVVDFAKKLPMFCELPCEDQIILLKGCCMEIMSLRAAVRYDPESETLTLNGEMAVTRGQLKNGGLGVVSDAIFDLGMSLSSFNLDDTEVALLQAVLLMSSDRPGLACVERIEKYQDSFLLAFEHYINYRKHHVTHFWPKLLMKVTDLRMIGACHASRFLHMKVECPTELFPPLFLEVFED
T1 sequence (P28702 whole entry partner, other chains not shown, the tested form may be a part): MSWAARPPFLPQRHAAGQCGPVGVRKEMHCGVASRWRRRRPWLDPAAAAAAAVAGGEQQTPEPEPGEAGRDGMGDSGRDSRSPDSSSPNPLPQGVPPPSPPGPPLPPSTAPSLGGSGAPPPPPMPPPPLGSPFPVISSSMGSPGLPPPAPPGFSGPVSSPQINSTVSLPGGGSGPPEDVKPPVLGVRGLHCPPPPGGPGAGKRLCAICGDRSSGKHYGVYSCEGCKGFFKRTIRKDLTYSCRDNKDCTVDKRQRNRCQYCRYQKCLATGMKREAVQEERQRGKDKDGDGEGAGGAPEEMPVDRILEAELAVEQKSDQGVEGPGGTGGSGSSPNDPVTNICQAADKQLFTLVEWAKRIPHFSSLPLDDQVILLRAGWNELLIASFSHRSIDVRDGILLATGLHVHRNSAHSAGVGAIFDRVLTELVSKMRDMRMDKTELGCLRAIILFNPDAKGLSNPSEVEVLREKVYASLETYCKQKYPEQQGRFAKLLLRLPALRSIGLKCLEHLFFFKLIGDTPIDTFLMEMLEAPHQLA
Method: 1. Main experimental materials and instruments:
Biotin-SRC2-2 co-activating peptide purchased from Sangon Biotech (Shanghai) Co., Ltd.
TRB LBD, GST purchased from Thermo Fisher (product No. PV4762)
Europium-conjugated anti-glutathione antibody purchased from Cisbio (product No. 61GSTKLB)
Streptavidin-D2 purchased from Cisbio (product No. 610SADAB)
(§1) 4.2 The activity percentage was calculated as follows: […]
(§2) RatioCompound: Average of the relative ratios of the compound wells of the embodiments
(§3) RatioPositive: Average of the relative ratios of all positive control wells.
(§4) RatioBlank: Average of the relative ratios of all negative control wells.
(§5) EC50 was calculated by fitting the relationship between activity (%) and compound logarithmic concentration with Graphpad 5.0 by a nonlinear regression method.
(§6) Y=Bottom+ (top-bottom)/(1+10^((LogEC50−X)*slope))
(§7) X: Compound logarithmic concentration Y: Percentage activity

[2] = target: T2, THR-α (Homo sapiens, UniProt P10827); test: Test of the binding ability of the compound to TRα (TRα LBD/RXRα, biotin-SRC2-2 co-activating peptide, 665/615 nm fluorescence ratio); format: biochemical
T2 construct: TR-a LBD, GST purchased from Thermo Fisher; purchased Thermo Fisher PV4762
T2 sequence (P10827 163-410 isoform P10827-2 limits assumed, other chains not shown): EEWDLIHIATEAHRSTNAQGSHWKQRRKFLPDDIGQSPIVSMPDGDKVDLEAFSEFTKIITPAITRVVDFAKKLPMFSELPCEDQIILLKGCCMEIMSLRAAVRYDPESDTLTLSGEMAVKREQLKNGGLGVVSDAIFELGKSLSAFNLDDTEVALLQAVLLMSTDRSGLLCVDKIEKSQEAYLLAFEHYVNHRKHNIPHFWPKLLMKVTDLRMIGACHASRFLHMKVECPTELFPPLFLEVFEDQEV
T2 sequence (P19793 whole entry partner, other chains not shown, the tested form may be a part): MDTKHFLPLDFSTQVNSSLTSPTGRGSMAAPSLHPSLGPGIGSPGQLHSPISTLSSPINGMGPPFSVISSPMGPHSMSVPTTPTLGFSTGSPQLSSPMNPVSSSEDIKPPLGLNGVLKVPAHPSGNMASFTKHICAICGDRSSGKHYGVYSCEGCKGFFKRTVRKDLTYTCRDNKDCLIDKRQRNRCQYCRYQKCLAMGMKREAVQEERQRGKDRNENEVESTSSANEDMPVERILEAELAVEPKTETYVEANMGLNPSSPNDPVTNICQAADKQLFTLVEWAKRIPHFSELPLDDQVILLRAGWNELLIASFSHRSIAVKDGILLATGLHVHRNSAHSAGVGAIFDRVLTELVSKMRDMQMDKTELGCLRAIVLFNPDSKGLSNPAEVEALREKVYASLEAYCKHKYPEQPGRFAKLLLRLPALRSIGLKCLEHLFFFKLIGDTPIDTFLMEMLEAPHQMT
Method: as §1, §2, §3, §4, §5, §6, §7

[3] = Drug metabolism experiment on prodrug in SD rats: plasma pharmacokinetic parameters; format: in vivo; conditions: plasma; for AUC(0-inf) / AUC(0-t) / Tmax / half-life / Cmax: male, Sprague-Dawley (SD), rat, po, 3 mg/kg
Method: (§8) Test 3: Drug metabolism experiment on prodrug in SD rats
(§9) In the experiment, […] of 12 male SD rats having similar body weights were selected and orally administered compound 9, compound 10, and the control drug VK2809 (the prodrug of MB07444, structured as shown below) at a dose of 3 mg/kg at a single time, respectively, and blood and liver samples were collected at different time points.
(§10) Solutions of compound 9/compound 10 and VK2809 with a final concentration of 0.6 mg/mL were respectively prepared, and the ratio between the solvents used for the preparation was PEG400: pure water =50:50 (v/v).
(§11) No randomization was performed. The weights of the animals were measured before administration, and healthy animals with similar body weights were selected for inclusion in the experiment. The oral dose was 3 mg/kg.
(§12) At least 0.2 mL of blood was collected from the tail vein or jugular vein, and heparin sodium was used as the anticoagulant.
15 min, 30 min, 1 h, 2 h, 4 h, 6 h, 8 h, 24 h after administration.
(§13) After being collected, a blood sample was placed in a marked ice-water bath centrifuge tube, plasma was quickly separated by centrifugation under centrifugation conditions: 3500 rpm, 10 minutes, and 4° C., and the plasma was stored under −40° C. for testing.
(§14) Q TRAP6500 mass spectrometer with ESI source was used to perform negative ion MRM scanning. An LC-MS/MS analysis method was used to detect the contents of compound 9, compound 10 and its active metabolite 1, VK2809 and its active metabolite MB07444 in the plasma and liver. The metabolic kinetics data analysis software WinNonlin 7.0 was used to calculate the concentration data of plasma, and the non-compartmental model (NCA) method was used to calculate the pharmacokinetic parameters.

[4] = Drug metabolism experiment on prodrug in SD rats: concentration in liver compared with blood; format: in vivo; conditions: for Kp at 1 h / Kp at 4 h / Kp at 8 h / Kp at 24 h / concentration at 1 h / concentration at 4 h / concentration at 8 h / concentration at 24 h: male, rat, po, 3 mg/kg, SD rats; for Kp at 1 h / Kp at 4 h / Kp at 8 h / Kp at 24 h: read-out: Liver-to-blood ratio
Method: as §8, §9, §10, §11, §12, §13
After the liver sample was collected, its surface was washed with normal saline, dried with medical gauze, placed in a labeled small ziplock bag, and stored under −40° C. for testing.
as §14
The parameters of concentration in the livers of the SD rats and a comparison with the concentration in plasma are shown in Table 3 below: […]

[5] = activity relative to positive control
[6] = Sprague-Dawley (SD), liver / plasma (heading prints blood), oral 3 mg/kg Compound 9
[7] = Sprague-Dawley (SD), liver / plasma (heading prints blood), oral 3 mg/kg Compound 10
[8] = Sprague-Dawley (SD), liver, oral 3 mg/kg Compound 9, read-out: Ct Liver
[9] = Sprague-Dawley (SD), liver, oral 3 mg/kg Compound 10, read-out: Ct Liver
[10] = Sprague-Dawley (SD), plasma (heading prints blood), oral 3 mg/kg Compound 10, read-out: Ct Blood
[11] = Sprague-Dawley, plasma, oral 3 mg/kg Compound 9, read-out: Ct Blood

For `Cc1cc(OCP(=O)(O)O)cc(C)c1Cc1ccc(O)c2c1CCC2(C)C` [Compound 1, ((4-((7-hydroxy-1,1-dimethyl-2,3-dihydro-1H-indene-4-position)methyl)-3,5-dimethylphenoxy)methyl) phosphoric acid], the EC50 [1] was 12 nM, the Emax [1, 5] was 104% and the “α/β selectivity (multiple)” value ([1]; calculated after being standardized with T3) was 7.0 multiple. For the same compound, the “activity for THR-β compared with MB07444” value ([1]; in words) was “much higher than that of the contrast compound MB07444”, the EC50 [2] was 41 nM and the Emax [2, 5] was 96.4%. It also gave an AUC(0-inf) ([3]; oral 3 mg/kg Compound 9) of 1350 ng·h/mL, an AUC(0-t) ([3]; oral 3 mg/kg Compound 9) of 1290 ng·h/mL and a Tmax ([3]; oral 3 mg/kg Compound 9) of 4.67 h. The half-life ([3]; oral 3 mg/kg Compound 9) was 4.82 h, the AUC(0-inf) ([3]; oral 3 mg/kg Compound 10) was 613 ng·h/mL and the AUC(0-t) ([3]; oral 3 mg/kg Compound 10) was 586 ng·h/mL. It also gave a Tmax ([3]; oral 3 mg/kg Compound 10) of 6.67 h, a half-life ([3]; oral 3 mg/kg Compound 10) of 4.59 h and a Cmax ([3]; oral 3 mg/kg Compound 9, read-out: Cmax) of 134 ng/mL. It also gave a Cmax ([3]; oral 3 mg/kg Compound 10, read-out: Cmax) of 45.1 ng/mL, a Kel ([3]; oral 3 mg/kg Compound 9) of 0.147 h⁻¹ and a Kel ([3]; oral 3 mg/kg Compound 10) of 0.154 h⁻¹. The “absolute concentration of active metabolite in the liver compared with control drug VK2809” value ([4]; after prodrug compound 9, in words) was “higher than that of the control drug VK2809”, the “liver-to-blood ratio compared with control drug” value ([4]; after prodrug compound 10, in words) was “significantly higher than that of the control drug” and the “absolute concentration of active metabolite in the liver compared with MB07444 from VK2809” value ([4]; after prodrug compound 10, same prodrug dose, in words) was “at least three times that of the active metabolite drug MB07444”. For the same compound, the Kp at 1 h [4, 6] was 20.8, the Kp at 1 h [4, 7] was 29.1 and the Kp at 4 h [4, 6] was 16.2. The Kp at 4 h [4, 7] was 20.6, the Kp at 8 h [4, 6] was 25.5 and the Kp at 8 h [4, 7] was 17.7. For the same compound, the Kp at 24 h [4, 6] was 47.1, the concentration at 1 h [4, 8] was 312 ng/g and the concentration at 1 h [4, 9] was 693 ng/g. For the same compound, the concentration at 4 h [4, 8] was 1560 ng/g, the concentration at 4 h [4, 9] was 2580 ng/g and the concentration at 8 h [4, 8] was 762 ng/g. It also gave a concentration at 8 h [4, 9] of 1710 ng/g, a concentration at 24 h [4, 8] of 396 ng/g and a concentration at 1 h [4, 10] of 5.4 ng/g. For the same compound, the concentration at 4 h [4, 10] was 28.4 ng/g, the concentration at 8 h [4, 10] was 43.6 ng/g and the concentration at 24 h [4, 10] was 3.83 ng/g. For the same compound, the concentration at 24 h ([4]; Sprague-Dawley, liver, oral 3 mg/kg Compound 10, read-out: Ct Liver) was 431 ng/g, the Kp at 24 h ([4]; Sprague-Dawley, liver/plasma, oral 3 mg/kg Compound 10) was 121 and the concentration at 1 h [4, 11] was 15 ng/g. The concentration at 4 h [4, 11] was 96.3 ng/g, the concentration at 8 h [4, 11] was 29.9 ng/g and the concentration at 24 h [4, 11] was 8.4 ng/g.
